In patent US4072760A, “Bronchospasmolytic phenylethanolamines” (Pharmacia AS, priority 1974, dated 1978):
Where two headings read alike, the source gives them in different places.

Columns and labels:
in vivo = conditions: mouse
From the text: Furthermore the acute toxicity in mice after intraveneous and oral administration is given.

[1] = tested on: β2 -stimulation, lungs guinea pig; assay: Bronchospasmolytic effect (β2 -stimulation), Konzett-Rossler technique in anaesthetized guinea pig lungs; format: in vivo; conditions: Cavia porcellus, doses as free base of the racemic compound
[2] = tested on: β1 -stimulation, heart rate mice; assay: Heart rate increasing effect (β1 -stimulation) in pentobarbital anaesthetized mice; format: in vivo; conditions: Mus musculus, iv, dose giving an increase in heart rate of 100 beats/min, as free base
Description: An especially valuable feature of the present invention is that typical and preferred representative of the compounds of the invention show a high bronchial selectivity (ratio of bronchospasmolytic activity to heart rate increasing effect) as compared to existing well-known broncholytics. […] The ratio, heart rate increasing dose ("ED 100") divided by bronchospasmolytic dose (ED 50), is a measure of the degree of selectivity of the bronchospasmolytic action. This ratio was calculated for a number of the compounds of the invention and for some of the most relevant compounds of reference.

[3] = tested on: β2 -stimulation versus β1 -stimulation; assay: Bronchial selectivity: heart rate increasing dose ("ED 100") divided by bronchospasmolytic dose (ED 50); format: in vivo; conditions: heart rate ED 100 (mice, i.v.) / bronchospasmolytic ED 50 (guinea pig, i.v.)
Description: The ratio, heart rate increasing dose ("ED 100") divided by bronchospasmolytic dose (ED 50), is a measure of the degree of selectivity of the bronchospasmolytic action. This ratio was calculated for a number of the compounds of the invention and for some of the most relevant compounds of reference.

[4] = tested on: β-stimulation of the skeletal muscles; assay: Tremor-inducing activity (β-stimulation of the skeletal muscles) compared to bronchospasmolytic activity in cats (Bowman and Nott); format: in vivo
Description: For a few of the compounds of the invention, the tremor-inducing activity (β-stimulation of the skeletal muscles) was determined in cats (in accordance with the technique of Bowman, W. C. and Nott, M. W.: Actions of some sympathomimetic bronchodilator and beta-adrenoceptor blocking drugs on contractions of the cat soleus muscle, Brit. J. Pharmac., 1970, 38, 37-49) and compared to the bronchospasmolytic activity in the same species.

conscious guinea pigs [5] = assay: Heart rate in conscious guinea pigs (Farmer et al.); format: in vivo
Description: (§1) The effective bronchospasmolytic doses of the two compounds were determined using a pressurized aerosol of a 1% acetylcholine solution as the spasmogen according to the method of […]. Pharmacol Exp. Therap. 1974, 189, 167-184 and the heart rate was determined according to Farmer et al. (Br. J. Pharmac. Chemotherap. 1968, 32, 193-200.

[6] = parameters: species or system rate; conditions: in vivo
From the text: (§2) Compounds of the present invention are well tolerated, as appears from the table.

dogs = conditions: dog, in vivo
From the text: as §2

conscious guinea pigs [7] = assay: Bronchospasmolytic dose in conscious guinea pigs, acetylcholine aerosol as spasmogen (Wardell); format: in vivo; conditions: pressurized aerosol of 1% acetylcholine, more active than salbutamol
Description: as §1

[8] = iv, read-out: β2 -stimulation lungs guinea pig ED 50 i.v.
[9] = i.d. = intraduodenally, read-out: β2 -stimulation lungs guinea pig ED 50 i.d.

Row | Structure (SMILES) | LD50 (in vivo; iv) | LD50 (in vivo; po) | ED50 [1, 8] | ED (increase of 100 beats/min) [2] | Ratio "ED 100"/ED 50 [3] | ED50 [1, 9] | ratio between bronchospasmolytic dose and tremor-inducing dose, compared with salbutamol [4] | heart rate stimulating effect compared with salbutamol (conscious guinea pigs [5]) | three month toxicity test: toxic reactions [6] | acute intravenous and oral toxicity test: tolerability (dogs) | two week tolerance test in dogs: tolerability (dogs) | broncholytic activity relative to salbutamol (conscious guinea pigs [7])
1 | CC(C)(C)NCC(O)c1ccc(O)c(NC(=O)c2ccc(Cl)c(Cl)c2)c1.Cl (stereo not drawn) [3-(3,4-Dichlorobenzamido)-4-hydroxy-α-(tert.butylaminomethyl)benzylalcohol hydrochloride] | 60 mg/kg | > 2000 mg/kg | 0.1 mg/kg | – | – | – | – | – | – | – | – | –
2 | COc1ccc(CNc2cc(C(O)CNC(C)(C)C)ccc2O)cc1OC.Cl (stereo not drawn) [3-(3,4-Dimethoxybenzylamino)-4-hydroxy-α-(tert.butylaminomethyl)benzylalcohol hydrochloride] | 20 mg/kg | > 2000 mg/kg | 0.01 mg/kg | 0.09 mg/kg | 9 | 10 mg/kg | – | – | – | – | – | –
3 | CC(C)(C)NCC(O)c1ccc(O)c(NC(=O)c2cc(O)cc(O)c2)c1.Cl (stereo not drawn) [3-(3,5-Dihydroxybenzamido)-4-hydroxy-α-(tert.butylaminomethyl)-benzylalcohol hydrochloride] | 20 mg/kg | > 2000 mg/kg | 0.3 mg/kg | – | – | 20 mg/kg | – | – | – | – | – | –
4 | COc1c(C)cc(CNc2cc(C(O)CNC(C)(C)C)ccc2O)cc1C.Cl (stereo not drawn) [3-(3,5-Dimethyl-4-methoxybenzylamino)-4-hydroxy-α-(tert.butylaminomethyl)benzylalcohol hydrochloride] | 20 mg/kg | 1500 mg/kg | 0.03 mg/kg | 0.3 mg/kg | 10 | 3 mg/kg | – | – | – | – | – | –
5 | COc1cc(CNc2cc(C(O)CNC(C)(C)C)ccc2O)ccc1O.Cl (stereo not drawn) [3-(3-Methoxy-4-hydroxybenzylamino)-4-hydroxy-α-(tert.butylaminomethyl)-benzylalcohol hydrochloride] | 10 to 30 mg/kg | > 2000 mg/kg | 0.02 mg/kg | 0.05 mg/kg | 2.5 | – | – | – | – | – | – | –
6 | CC(C)(C)NCC(O)c1ccc(O)c(NC(=O)c2cccc([N+](=O)[O-])c2)c1.Cl (stereo not drawn) [3-(3-Nitrobenzamido)-4-hydroxy-α-(tert.butylaminomethyl)benzylalcohol hydrochloride] | 60 mg/kg | > 2000 mg/kg | 0.3 mg/kg | – | – | – | – | – | – | – | – | –
7 | CC(C)(C)NCC(O)c1ccc(O)c(NCc2cccc(O)c2)c1 (stereo not drawn) [3-(3-hydroxybenzylamino)-4-hydroxy-α-(tert.butylaminomethyl) benzylalcohol] | 20 mg/kg | ≥ 2000 mg/kg | 0.01 mg/kg | 0.025 mg/kg | 2.5 | 10 mg/kg | – | – | – | – | – | –
8 | CC(C)(C)NCC(O)c1ccc(O)c(NC(=O)c2ccc(Cl)cc2)c1.Cl (stereo not drawn) [3-(4-Chlorobenzamido)-4-hydroxy-α-(tert.butylaminomethyl)benzylalcohol hydrochloride] | 60 mg/kg | > 2000 mg/kg | 0.5 mg/kg | – | – | – | – | – | – | – | – | –
9 | CN(C)c1ccc(CNc2cc(C(O)CNC(C)(C)C)ccc2O)cc1.Cl (stereo not drawn) [3-(4-Dimethylaminobenzylamino)-4-hydroxy-α-(tert.butylaminomethyl)benzylalcohol hydrochloride] | 20 mg/kg | 700 mg/kg | 0.02 mg/kg | ≥ 0.1 mg/kg | ≥ 5 | – | – | – | – | – | – | –
10 | CCOc1ccc(CNc2cc(C(O)CNC(C)(C)C)ccc2O)cc1.Cl (stereo not drawn) [3-(4-Ethoxybenzylamino)-4-hydroxy-α-(tert.butylaminomethyl)benzylalcohol hydrochloride] | 20 mg/kg | 400 mg/kg | 0.01 mg/kg | 0.1 mg/kg | 10 | 5 mg/kg | – | – | – | – | – | –
11 | CC(C)(C)NCC(O)c1ccc(O)c(NCc2ccc(O)cc2)c1.Cl (stereo not drawn) [3-(4-Hydroxybenzylamino)-4-hydroxy-α-(tert.butylaminomethyl)benzylalcohol hydrochloride] | 20 mg/kg | > 2000 mg/kg | 0.01 mg/kg | 0.07 mg/kg | 7 | 10 mg/kg | – | – | – | – | – | –
12 | CC(C)Oc1ccc(CNc2cc(C(O)CNC(C)(C)C)ccc2O)cc1.Cl (stereo not drawn) [3-(4-Isopropoxybenzylamino)-4-hydroxy-α-(tert.butylaminomethyl)-benzylalcohol hydrochloride] | 20 mg/kg | 400 mg/kg | 0.03 mg/kg | 0.1 mg/kg | 3.3 | – | – | – | – | – | – | –
13 | COc1ccc(CNc2cc(C(O)CNC(C)(C)C)ccc2O)cc1.Cl (stereo not drawn) [3-(4-Methoxybenzylamino)-4-hydroxy-α-(tert.butylaminomethyl)-benzylalcohol hydrochloride] | 20 mg/kg | 300 mg/kg | 0.003 mg/kg | 0.1 mg/kg | 33 | 1 mg/kg | a better ratio than salbutamol | the heart rate stimulating effect was the same | no toxic reactions | good tolerability | good tolerability | 10 times
14 | Cc1ccc(CNc2cc(C(O)CNC(C)(C)C)ccc2O)cc1.Cl (stereo not drawn) [3-(4-Methylbenzylamino)-4-hydroxy-α-(tert.butylaminomethyl)benzylalcohol hydrochloride] | 20 mg/kg | 700 mg/kg | 0.07 mg/kg | – | – | – | – | – | – | – | – | –
15 | CC(C)(C)NCC(O)c1ccc(O)c(NCc2ccc([N+](=O)[O-])cc2)c1.Cl (stereo not drawn) [3-(4-Nitrobenzylamino)-4-hydroxy-α-(tert.butylaminomethyl)-benzylalcohol hydrochloride] | 60 mg/kg | 400 mg/kg | 0.01 mg/kg | 0.1 mg/kg | 10 | 0.5 mg/kg | – | – | – | – | – | –
16 | COc1ccc(C(=O)Nc2cc(C(O)CNC(C)(C)C)ccc2O)cc1.Cl (stereo not drawn) [3-(4-methoxybenzamido)-4-hydroxy-α-(tert.butylaminomethyl)benzylalcohol hydrochloride] | 80 mg/kg | > 2000 mg/kg | 0.1 mg/kg | > 1 mg/kg | > 10 | 10 mg/kg | the same ratio between bronchospasmolytic dose and tremor-inducing dose as salbutamol | – | – | – | – | –
17 | CC(C)(C)NCC(O)c1ccc(O)c(NC(=O)c2ccc([N+](=O)[O-])cc2)c1.Cl (stereo not drawn) [3-(4-nitrobenzamido)-4-hydroxy-α-(tert.butylaminomethyl)benzylalcohol hydrochloride] | 40 mg/kg | > 2000 mg/kg | 0.1 mg/kg | > 1 mg/kg | > 10 | 10 mg/kg | – | – | – | – | – | –
18 | COCCOc1ccc(CNc2cc(C(O)CNC(C)(C)C)ccc2O)cc1.Cl (stereo not drawn) [3-[4-(2-Methoxyethoxy)benzylamino]-4-hydroxy-α-(tert.butylaminomethyl)-benzylalcohol hydrochloride] | 20 mg/kg | > 1000 mg/kg | 0.01 mg/kg | 0.1 mg/kg | 10 | 1 mg/kg | – | – | – | – | – | –
19 | CC(C)(C)NCC(O)c1ccc(O)c(NCc2ccc(OCC(N)=O)cc2)c1 (stereo not drawn) [3-[4-(carbamoylmethoxy)benzylamino]-4-hydroxy-α-(tert.butylaminomethyl)benzylalcohol] | 20 mg/kg | > 1000 mg/kg | 0.01 mg/kg | 0.1 mg/kg | 10 | 10 mg/kg | – | – | – | – | – | –
20 | CC(C)NCC(O)c1ccc(O)c(O)c1 (centres unmarked) [Isoprenaline, reference compound] | – | – | 0.005 mg/kg | 0.0003 mg/kg | – | – | – | – | – | – | – | –
21 | CC(C)NCC(O)c1cc(O)cc(O)c1 (centres unmarked) [Orciprenaline, reference compound] | – | – | 0.1 mg/kg | 0.01 mg/kg | – | – | – | – | – | – | – | –
22 | CC(C)(C)NCC(O)c1ccc(O)c(CO)c1 (centres unmarked) [Saloutamol, salbutamol, reference compound] | – | – | 0.01 mg/kg | 0.1 mg/kg | – | 5 mg/kg | – | – | – | – | – | –
23 | CC(C)NCC(O)c1ccc(O)c(NS(C)(=O)=O)c1 (centres unmarked) [Soterenol, reference compound] | 60 mg/kg | 750 mg/kg | 0.02 mg/kg | 0.04 mg/kg | 2 | – | – | – | – | – | – | –
24 | CC(C)(C)NCC(O)c1cc(O)cc(O)c1 (centres unmarked) [Terbutaline, reference compound] | 40 mg/kg | > 2000 mg/kg | 0.03 mg/kg | 0.3 mg/kg | 10 | 10 mg/kg | – | – | – | – | – | –
